Patent US12187758B2 (ROME Therapeutics, Inc., priority 2022, dated 2025)

What was measured:
7S mitochondria DNA = assay: Mitochondria DNA assay with PC3 cells; type: cell-based; conditions: Homo sapiens, PC-3, 120 h, 5 days, 7S mitochondria DNA level by qPCR relative to 18S or GAPDH
Method: Exemplary compounds were tested for their effect on levels of 7S mitochondria DNA, and the DNA of housekeeping genes 18S and GAPDH. Reduction of 7S mitochondria DNA indicates off-target inhibition of mitochondrial DNA synthesis, which leads to mitochondrial toxicity. Assay procedures and results are described below.
PC3 cells were purchased from ATCC and cultured in F-12 Kaighn's modified medium (Hyclone), 10% heat-inactivated fetal bovine serum (Gibco), 1% Penicillin-Streptomycin (Invitrogen). PC3 cells were treated with a dose titration of a test compound on 6 well plates for 5 days at 37° C., 5% CO2 in a humidified incubator.
Cells were harvested and mitochondria DNA extraction was performed using DNeasy Blood & Tissue Kit (Qiagen) according to the manufacture's instruction.
Mitochondria 7S and housekeeping genes 18S and GAPDH DNA was quantified by multiplex qPCR with the PowerUp™ SYBR™ Green system (Applied Biosystems). Prepare reaction mix consisting of 5 μl of 2× PowerUp™ SYBR™ Green Master Mix, 1 μl of 5 μM Primers for 7S, 18S, or GAPDH, 4 μl of DNA template from DNA extraction above. The primer sequences are below:
qPCR was performed on QuantStudio™ 7 Flex RealTime qPCR system (Applied Biosystems) as set forth below: • a. 50° C. for 2 minutes, then • b. 95° C. for 2 minutes, then • c. 95° C. for 15 seconds, then • d. 60° C. for 60 seconds, • where then steps (c) and (d) were repeated 60 times.
Threshold was calculated by QuantStudio™ 7 Flex Software (ThermoFisher Scientific) using the default settings. Ct values were used to evaluate the relative mitochondria DNA (mtDNA) level using the following formula: ΔCt=Ct (7S target gene)−Ct (18S) or ΔCt=Ct (7S target gene)−Ct (GAPDH). Relative mtDNA level=2^−Δct. Expression fold over DMSO control=2^−Δct (compound treated group)/2^−Δct (DMSO group)
In the table “A” represents values≤0.1 μM; “B” represents values from >0.1 μM to ≤1.0 μM; “C” represents values from >1.0 μM to ≤10.0 μM; “D” represents values from >10.0 μM to ≤100.0 μM; and “E” represents values>100.0 μM.

[1] = tested on: phosphorylated TANK-binding kinase 1 (pTBK1); assay: UVB-induced pTBK1 in HaCaT cells; type: cell-based; conditions: for IC50: Homo sapiens, light or radiation study, pTBK1 response curves, 72 hours compound treatment, UVB
Method: pTBK1 is an important signaling molecule in regulating inflammatory responses. HaCaT cells were plated in 6-well plates at a density of ˜100 k/well in HaCaT media (DMEM, optimized 1× (Addex Bio)+ 1% pen strep (Gibco)^+ 5% heat inactivated fetal bovine serum (Gibco)). The cells were then cultured at 37° C. overnight. The next day, the cells were treated with the test compounds. Each test compound was diluted and added to media aliquots to provide desired concentrations. To add the test compound+media mixture, an equivalent amount of media from each well was aspirated and then replenished with the media dosed with the test compound. The cells were then cultured for an additional 72 hours with compound treatment prior to UVB exposure.
The media was then aspirated from the wells, with the remaining cells at least 80% confluent in each well. One mL of PBS was then added to each well, and the plate was then placed under a UVB lamp. A UVB sensor was positioned near the plate to register the plate's exposure. The cells were exposed to the UVB light until they reached 0.1 mJ/cm2. Then the plate was covered and transferred to a sterile hood for processing.
The PBS was aspirated out of the wells, and the wells were replenished with 3 mL fresh culture media. The cells were then cultured for an additional 24 hours, and samples were processed 24 hours post-UVB exposure. To process the samples, the media was aspirated, the plate placed on ice, and the cells washed with cold PBS, which was then aspirated off. Another 1 mL of cold PBS was added to each well. The cells were then scraped in the cold PBS solution and transferred to conical tubes on ice. The cells were then spun at ≥1000 RCF at 4° C. for 5 minutes. The cells were then resuspended in 1 mL of cold PBS and transferred to a microcentrifuge tube. The cells were spun at ≥1000 RCF at 4° C. for another 5 minutes, and the PBS was aspirated off. The cell pellet was prepared for lysis.
A RIPA lysis buffer (#BP-115, Boston BioProducts) was added to a Halt protease and […] inhibitor cocktail (#78440, ThermoFisher), and the mixture was cooled on ice. About 30 μL of the lysis buffer mix was added to the cells. The samples were briefly vortexed and then incubated on ice for at least 15 minutes. The cells were then spun≥1000 RCF at 4° C. for 5 minutes and the supernatant was transferred to a clean tube. The protein concentration of the cell lysate was measured using Pierce™ Rapid Gold BCA Protein Assay Kit #AF3225 (ThermoFisher). ELISA analysis was run on select samples using one of the following kits: • a. FastScan™ Phospho-TBK1/NAK (Ser172) ELISA Kit #46948 (Cell Signaling Technologies) • b. FastScan™ Total TBK1/NAK ELISA Kit #15816 (Cell Signaling Technologies) • c. FastScan™ Phospho-STING (Ser366) ELISA Kit #82083 (Cell Signaling Technologies) • d. FastScan™ Phospho-IRF-3 (Ser396) ELISA Kit #50386 (Cell Signaling Technologies) • e. FastScan™ Total IRF-3 ELISA Kit #29771 (Cell Signaling Technologies) • f. Phospho-NAK/TBK1 (S172) ELISA Kit (ab279952) (Abcam) • g. Phospho-IRF3 (S386) ELISA Kit (ab279833) (Abcam) Part II—Results
In the table “A” represents values≤0.50 μM; “B” represents values from >0.50 μM to ≤2.0 μM; “C” represents values from >2.0 μM to ≤5.0 μM; “D” represents values from >5.0 μM to ≤10 μM; and “E” represents values>10 μM.

IC50 (7S mitochondria DNA) [µM] | Structure (SMILES) | IC50 [1] [µM] | cytotoxicity at concentrations [1] [µM]
 | C[C@@H]1[C@H](n2ccc(N)nc2=O)O[C@@](CO)(CCl)[C@H]1O [Compound 12, 4-amino-1-((2R,3S,4S,5R)-5-(chloromethyl)-4-hydroxy-5-(hydroxymethyl)-3-methyltetrahydrofuran-2-yl)pyrimidin-2(1H)-one] | > 10 | 
 | CO[C@@H]1[C@H](n2ccc(N)nc2=O)O[C@@](CO)(CCl)[C@H]1O [Compound 13, 4-amino-1-((2R,3S,4S,5R)-5-(chloromethyl)-4-hydroxy-5-(hydroxymethyl)-3-methoxytetrahydrofuran-2-yl)pyrimidin-2(1H)-one] | > 10 | 
≤ 0.1 | Nc1nc(=O)n([C@H]2C[C@H](O)[C@](CO)(CCl)O2)cc1F [Compound 14, 4-amino-1-((2R,4S,5R)-5-(chloromethyl)-4-hydroxy-5-(hydroxymethyl)tetrahydrofuran-2-yl)-5-fluoropyrimidin-2(1H)-one] | 0.5 to 2 | ≥ 30
 | Nc1ncnc2c1ncn2[C@H]1C[C@H](O)[C@](CO)(CCl)O1 [Compound 15, (2R,3S,5R)-5-(6-amino-9H-purin-9-yl)-2-(chloromethyl)-2-(hydroxymethyl)tetrahydrofuran-3-ol] | > 10 | 
 | Nc1ccn([C@H]2C[C@H](O)[C@](CO)(C3CC3)O2)c(=O)n1 [Compound 16, 4-amino-1-((2R,4S,5R)-5-cyclopropyl-4-hydroxy-5-(hydroxymethyl)tetrahydrofuran-2-yl)pyrimidin-2(1H)-one] | > 10 | 
 | C[C@@H]1[C@H](n2ccc(N)nc2=O)O[C@](C)(CO)[C@H]1O [Compound 19, 4-amino-1-((2R,3S,4S,5R)-4-hydroxy-5-(hydroxymethyl)-3,5-dimethyltetrahydrofuran-2-yl)pyrimidin-2(1H)-one] | > 10 | 
> 100 | CC[C@]1(CO)O[C@@H](n2ccc(N)nc2=O)C[C@@H]1O [Compound 44, 4-amino-1-((2R,4S,5R)-5-ethyl-4-hydroxy-5-(hydroxymethyl)tetrahydrofuran-2-yl)pyrimidin-2(1H)-one] | > 10 | 
 | CC[C@]1(CO)O[C@@H](n2ccc(N)nc2=O)[C@@H](F)[C@@H]1O [Compound 51, 4-amino-1-((2R,3S,4R,5R)-5-ethyl-3-fluoro-4-hydroxy-5-(hydroxymethyl)tetrahydrofuran-2-yl)pyrimidin-2(1H)-one] | > 10 | 
> 100 | [N-]=[N+]=N[C@]1(CO)O[C@@H](n2cc(F)c(N)nc2=O)C[C@@H]1O [Compound 61, 4-amino-1-((2R,4S,5R)-5-azido-4-hydroxy-5-(hydroxymethyl)tetrahydrofuran-2-yl)-5-fluoropyrimidin-2(1H)-one] | > 10 | 
> 100 | Nc1nc(=O)n([C@@H]2O[C@@](CO)(CCl)[C@@H](O)[C@@H]2F)cc1F [Compound 67, 4-amino-1-[(2R,3S,4R,5R)-5-(chloromethyl)-3-fluoro-4-hydroxy-5-(hydroxymethyl)oxolan-2-yl]-5-fluoropyrimidin-2-one] | 2 to 5 | 
 | Nc1nc(=O)n([C@@H]2O[C@@](CO)(CF)[C@@H](O)[C@@H]2O)cc1F [Compound 72, 4-amino-5-fluoro-1-((2R,3S,4S,5R)-5-(fluoromethyl)-3,4-dihydroxy-5-(hydroxymethyl)tetrahydrofuran-2-yl)pyrimidin-2(1H)-one] | 5 to 10 | 
 | Nc1nc(=O)n([C@@H]2O[C@@](CO)(CF)[C@@H](O)[C@@H]2F)cc1F [Compound 85, 4-amino-5-fluoro-1-[(2R,3S,4R,5R)-3-fluoro-5-(fluoromethyl)-4-hydroxy-5-(hydroxymethyl)oxolan-2-yl] pyrimidin-2-one] | 5 to 10 | 
≤ 0.1 | Nc1nc(=O)n([C@H]2C[C@H](O)[C@](CO)(CBr)O2)cc1F [Compound 88, 4-amino-1-((2R,4S,5R)-5-(bromomethyl)-4-hydroxy-5-(hydroxymethyl)tetrahydrofuran-2-yl)-5-fluoropyrimidin-2(1H)-one] | > 10 | 

Structure (SMILES) | IC50 (7S mitochondria DNA) [µM] | IC50 [1] [µM] | cytotoxicity at concentrations [1] [µM]
Nc1ccn([C@H]2C[C@H](O)[C@](CO)(CCl)O2)c(=O)n1 [Compound 2, 4-amino-1-((2R,4S,5R)-5-(chloromethyl)-4-hydroxy-5-(hydroxymethyl)tetrahydrofuran-2-yl)pyrimidin-2(1H)-one] | ≤ 0.1 | ≤ 0.5 | 
C#C[C@]1(CO)O[C@@H](n2cnc3c(N)nc(Cl)nc32)C[C@@H]1O [Compound 25] | > 100 |  | 
Nc1ccn([C@@H]2O[C@@](CO)(CCl)[C@@H](O)[C@@H]2F)c(=O)n1 [Compound 40, 4-amino-1-((2R,3S,4R,5R)-5-(chloromethyl)-3-fluoro-4-hydroxy-5-(hydroxymethyl)tetrahydrofuran-2-yl)pyrimidin-2(1H)-one] | > 100 | 2 to 5 | 
